{"source": "patent US10537541B2", "about": "“Treatment of focal segmental glomerular sclerosis (FSGS) using therapeutically effective oral doses of 10-nitro-9(E)-octadec-9-enoic acid” (Complexa, Inc., priority 2015, dated 2020)", "key": {"CYP450 3A4": {"molecular_target": "CYP450 3A4 (Homo sapiens, UniProt P08684)", "sequence (P08684 whole entry)": "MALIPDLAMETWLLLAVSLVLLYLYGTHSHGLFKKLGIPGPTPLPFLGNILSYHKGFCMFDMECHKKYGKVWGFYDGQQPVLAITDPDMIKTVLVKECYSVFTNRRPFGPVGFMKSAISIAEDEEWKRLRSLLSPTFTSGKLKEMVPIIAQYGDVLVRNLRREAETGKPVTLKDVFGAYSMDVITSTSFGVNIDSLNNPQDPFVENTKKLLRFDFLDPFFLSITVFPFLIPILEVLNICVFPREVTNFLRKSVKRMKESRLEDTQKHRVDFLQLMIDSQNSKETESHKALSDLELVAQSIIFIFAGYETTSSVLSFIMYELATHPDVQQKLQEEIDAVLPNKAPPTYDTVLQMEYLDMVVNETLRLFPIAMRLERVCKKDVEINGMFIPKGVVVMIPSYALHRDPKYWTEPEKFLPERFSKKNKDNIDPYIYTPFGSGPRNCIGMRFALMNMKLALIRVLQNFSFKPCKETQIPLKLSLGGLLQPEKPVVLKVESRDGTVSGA", "assay": "In vitro CYP450 evaluation", "type": "in vitro ADME"}, "[1]": {"test_system": "rat model of renal ischemia/reperfusion", "assay": "Rat model of renal ischemia/reperfusion (acute kidney injury)", "type": "in vivo", "conditions": "rats", "procedure": "Prevention of ischemic reperfusion injury: Studies were performed to test the effectiveness and the dose/exposure-response relationship of 10-nitro-9(E)-octadec-9-enoic acid in reducing acute kidney injury in a rat model of renal ischemia/reperfusion when administered prior to the insult. A well-established and reproducible rat model of contrast-induced nephropathy was not available. Because ischemic/reperfusion injury is a facet of contrast-induced nephropathy, it was considered a reasonable alternative. In this model, the renal arteries of the rat were clamped for 35 min, followed by reperfusion. Serum creatinine was measured daily for 72 hours. The animals were then sacrificed for tissue and terminal plasma. 10-nitro-9(E)-octadec-9-enoic acid was administered over 15 min intravenously at various doses at one hour prior to the injury. […]\n10-nitro-9(E)-octadec-9-enoic acid (2.5, 12.5, and 25 mg/kg) was administered 1 hr prior to the ischemic event. Plasma samples were taken at 0, 24, 48, and 72 hr following the ischemic event, and serum creatinine levels were measured in batches using mass spectrometry to achieve precision in the results."}, "obese male subjects": {"test_system": "obese male subjects", "assay": "Multiple ascending dose study in obese males: serum biomarkers (leptin, MCP-1, IL-6, triglycerides, cholesterol)", "type": "in vivo, human", "description": "Biomarker characterization included the following laboratory parameters: serum leptin, FBG, total cholesterol, HDL and LDL, triglycerides, HR, PR, QRS interval and T-wave morphology measured on ECGs extracted from cardiac Holter monitoring, measurements of serum RBP4, CRP, PAI-1, measurements of serum cytokines: IL-6, TNFα, MCP-1, measurements of the following biomarkers in whole blood by quantitative reverse transcriptase polymerase chain reaction (qRT-PCR) including: HO-1, NQ01, GCLM, HSP70 (HSP1A HSP1B, HSPA6), HSP22 (HSPB8) and HPS40 (DNAJA4), urine RBP4, MCP-1 and KIM-1, urinary exosomes by qRT-PCR including: HO-1, NQ01, GCLM, HSP70 (HSP1A HSP1B, HSPA6), HSP22 (HSPB8) and HPS40 (DNAJA4), gene and protein expression analyses by DNAseq, RNAseq, and western blots in PBMCs and ratio of EETs to DHETs in serum and urine.\nThis was a single-center, randomized, double-blind, placebo-controlled study of sequential multiple ascending doses of oral CXA-10 in obese male subjects. Eligible subjects included obese males age 19 to 57 years and BMI 27.0 to 39.5 kg/m^2. CXA-10 and placebo were provided as solutions in hard shell capsules. Three (3) cohorts of subjects were dosed once daily with CXA-10 for 14 days. The doses administered in this study were 25, 150 and 450 mg. Subjects enrolled in the highest dose level (450 mg) were administered 600 mg on day 1 then 450 mg for 13 days. This cohort (cohort 3) was given the option to receive an additional 450 mg dose on day 15 with a high fat (50%) breakfast.\nFull PK profiles were obtained on Days 1 and 14. For subjects in cohort 3 who participate in the additional procedures on Day 15, full PK profiles were obtained on Days 1, 14, and 15. An abbreviated PK profile could also be obtained for the highest dose cohort only on one additional day. The actual day of PK sampling coincided with the additional day of Holter monitoring for the highest dose cohort. Subjects returned on Day 21 and Day 28 for PK, safety, and biomarker assessments."}, "[2]": {"test_system": "deoxycorticosterone acetate (DOCA)/salt-induced model of FSGS", "assay": "DOCA salt study: serum and urine analyses", "type": "in vivo, mice (129/sv strain)", "conditions": "DOCA/salt mice; for reduction in albuminuria: 2.5 mg/kg p.o. QD", "procedure": "Induction of model: Male mice (129/sv strain) were purchased from Taconic Labs. The animals were uninephrectomized (Unx) at 6 weeks of age by the vendor and shipped one week after surgery. At 2 weeks post Unx, a DOCA or placebo pellet (21-day release pellets, 50 mg/pellet, Innovative Research of America, Sarasota, Fla.) was implanted s.c. All mice were then placed on a semisynthetic diet which contained a moderate fat content and a low phytoestrogen/anti-oxidant level, which approximates a normal human diet (4). A second DOCA or placebo pellet was implanted three weeks later. […] One percent NaCl in tap water was given to each group except the sham control group. Body weight was measured weekly, and doses were readjusted based on the current body weight. Urine and blood samples were collected prior to treatment and at week 2 and 4 of treatment. Mice were terminated at week 4. Data is presented as the mean+SEM for the number of animals listed in each group. Serum and urine analyses: Blood samples were collected from the retro-orbital sinus and samples were separated to serum. Serum and urine creatinine (enzymatic assay), blood urea nitrogen (BUN), and serum cholesterol were measured using a Cobas 400 plus bioanalyzer (Roche Diagnostics, IN). Urine samples were collected for 24 h using metabolic cages. Urine albumin was measured by immunoassay Albuwell M (Exocell Inc., Philadelphia, Pa.). Immuno-ELISA according to manufacturer's instructions was used to measure urine nephrin (Exocell Inc., Philadelphia, Pa.) and MCP-1 (Thermal Scientific, Waltham, Mass.). Kim-1 was measured using the E-90KIM Mouse ELISA Kit (Immunology Consultants Laboratory, Portland, Oreg.). Statistical analyses for serum and urine data was performed using a two-tailed Student's t-test."}, "[3]": {"conditions": "low dose 2.5 mg/kg p.o. QD, 4 weeks"}, "[4]": {"conditions": "lower dose 2.5 mg/kg p.o. QD, 4 weeks"}}, "note": "Entries after “also recorded” stand apart in the source; their conditions may differ.", "data": [{"smiles": "CCCCCCCC/C(=C\\CCCCCCCC(=O)O)[N+](=O)[O-]", "note": "[CXA-10, 10-nitro-9(E)-octadec-9-enoic acid]", "values": [{"measurement": "IC50", "setting": "CYP450 3A4", "result": "> 33", "unit": "µM"}, {"measurement": "renal structural injury (periodic acid-Schiff staining, blinded scoring)", "setting": "[1]; 12.5 mg/kg intravenously 1 hr prior to I/R injury", "result": "alleviation of injury; also recorded: preserved normal renal structure"}, {"measurement": "serum creatinine following ischemia", "setting": "[1]; 12.5 mg/kg intravenously 1 hr prior to ischemic event, 24 hr, p<0.01 at 24 hr only", "result": "statistically significant decrease; also recorded: significantly lowered"}, {"measurement": "Cholesterol concentrations, change from baseline", "setting": "obese male subjects; 150 mg", "result": "trend to decrease from baseline"}, {"measurement": "MCP-1 mean change from baseline compared to placebo", "setting": "obese male subjects; 150 mg", "result": "significantly different compared to placebo"}, {"measurement": "Triglycerides LS Mean Difference (CI)", "setting": "obese male subjects; 150 mg versus placebo, Day 8", "result": -45.4, "unit": "mg/dL"}, {"measurement": "MCP-1 LS Mean Difference (CI)", "setting": "obese male subjects; 150 mg versus placebo, Day 14 (0-10 hr)", "result": "−228.5 (−387.2, −69.77) pg/mL"}, {"measurement": "Triglycerides LS Mean Difference (CI)", "setting": "obese male subjects; 150 mg versus placebo, Day 15", "result": -59.6, "unit": "mg/dL"}, {"measurement": "decrease of leptin concentrations from baseline", "setting": "obese male subjects; 150 mg, day 14, placebo increased 35%", "result": 21.5, "unit": "%"}, {"measurement": "IL-6 concentrations, change from baseline", "setting": "obese male subjects; 150 mg, days 7 and 14", "result": "trend to decrease from baseline"}, {"measurement": "Leptin % change from baseline", "setting": "obese male subjects; Cohort 2 150 mg (n = 10), Day 14", "result": "−21.5", "unit": "%"}, {"measurement": "Leptin LS Mean Difference (CI) versus placebo", "setting": "obese male subjects; Cohort 2 150 mg versus placebo, Day 14", "result": "−56.5 (−140.5, 27.5) pg/mL"}, {"measurement": "reduction in albuminuria", "setting": "[2]; week 2 post-dosing", "result": 49, "unit": "%"}, {"measurement": "reduction in albuminuria", "setting": "[2]; week 4 post-dosing", "result": 34, "unit": "%"}, {"measurement": "albuminuria", "setting": "[2]; high dose 12.5 mg/kg p.o. QD", "result": "had an effect initially but it was not sustained"}, {"measurement": "urinary MCP-1 excretion", "setting": "[2]; high dose 12.5 mg/kg p.o. QD, 4 weeks", "result": "had no effect"}, {"measurement": "plasma cholesterol", "setting": "[2]; [3]", "result": "reduced"}, {"measurement": "urinary MCP-1 excretion", "setting": "[2]; [3]", "result": "significantly reduced"}, {"measurement": "albumin excretion", "setting": "[2]; [4]", "result": "markedly reduced"}, {"measurement": "urinary nephrin levels", "setting": "[2]; [4]", "result": "markedly reduced"}]}]}
